Reference: publication PMC12383317, “Ajuforrestin A Inhibits Tumor Proliferation and Migration by Targeting the STAT3/FAK Signaling Pathways and VEGFR-2” (Biology, 2025)

Molecular target: T1, VEGFR-2 (Homo sapiens, UniProt P35968)
T1 construct: gene KDR
Assay: SPR with VEGFR-2 immobilized on sensor chip, compound […]
Assay type: binding

T1 sequence (P35968 20-1356): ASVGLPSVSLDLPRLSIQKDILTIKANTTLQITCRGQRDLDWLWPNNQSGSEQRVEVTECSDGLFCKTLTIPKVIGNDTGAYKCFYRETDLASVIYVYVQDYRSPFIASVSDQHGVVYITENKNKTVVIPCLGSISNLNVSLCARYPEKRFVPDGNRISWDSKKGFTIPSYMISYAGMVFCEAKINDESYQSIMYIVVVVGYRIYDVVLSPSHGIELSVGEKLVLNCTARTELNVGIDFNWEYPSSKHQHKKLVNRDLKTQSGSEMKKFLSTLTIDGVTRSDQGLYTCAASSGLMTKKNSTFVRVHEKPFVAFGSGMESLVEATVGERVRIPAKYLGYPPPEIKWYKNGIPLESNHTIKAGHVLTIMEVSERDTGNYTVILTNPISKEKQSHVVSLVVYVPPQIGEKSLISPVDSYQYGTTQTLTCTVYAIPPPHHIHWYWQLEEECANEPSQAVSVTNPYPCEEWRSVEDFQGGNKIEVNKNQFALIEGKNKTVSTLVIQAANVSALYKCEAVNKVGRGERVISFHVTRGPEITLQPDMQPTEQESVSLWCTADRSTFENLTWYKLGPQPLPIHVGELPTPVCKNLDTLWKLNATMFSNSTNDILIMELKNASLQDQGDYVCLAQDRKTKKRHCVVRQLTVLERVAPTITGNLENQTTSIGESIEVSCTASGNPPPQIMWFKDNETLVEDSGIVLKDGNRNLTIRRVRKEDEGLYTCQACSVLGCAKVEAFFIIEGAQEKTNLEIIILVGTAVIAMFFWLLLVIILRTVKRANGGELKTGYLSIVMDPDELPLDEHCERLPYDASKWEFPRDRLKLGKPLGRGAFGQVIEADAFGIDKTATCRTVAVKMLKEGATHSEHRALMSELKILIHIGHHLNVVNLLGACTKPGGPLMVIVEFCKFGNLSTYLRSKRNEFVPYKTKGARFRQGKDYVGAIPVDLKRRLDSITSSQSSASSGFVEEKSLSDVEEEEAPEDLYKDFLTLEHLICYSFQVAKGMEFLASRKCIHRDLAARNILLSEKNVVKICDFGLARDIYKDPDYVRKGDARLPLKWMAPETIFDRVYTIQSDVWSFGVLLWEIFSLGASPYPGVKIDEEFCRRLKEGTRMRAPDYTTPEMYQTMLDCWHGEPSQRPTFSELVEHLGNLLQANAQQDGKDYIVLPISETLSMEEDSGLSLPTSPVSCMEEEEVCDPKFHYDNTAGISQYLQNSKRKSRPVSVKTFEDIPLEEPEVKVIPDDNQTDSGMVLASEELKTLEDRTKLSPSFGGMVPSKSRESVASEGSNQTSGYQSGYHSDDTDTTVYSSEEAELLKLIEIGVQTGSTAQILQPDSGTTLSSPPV

## CC1=C(C)C2=CC(=O)c3c(c(O)c4occ(C)c4c3O)C2(C)CC1 (stereo not shown) [ajuforrestin A]
  Kd: 45 µM
